The mortality is the share of the test organisms that died.

Read-outs that look alike come from different tables or passages of the source.

The text below walks through data of patent US8835657B2, “Cyclopentanedione compounds and their use as insecticides, acaricides and/or fungicides” (Bayer CropScience AG, priority 2009, dated 2014).

What all share (assay type): in vivo
One experiment has as its system Meloidogyne incognita. Description: Meloidogyne test (MELGIN). The note with it: 20 ppm, sand with salad seeds, after 14 days. Here is the method: Meloidogyne Test (MELGIN)
• Solvent: 80.0 parts by weight of acetone
To produce a suitable preparation of active compound, 1 part by weight of active compound is mixed with the stated amount of solvent, and the concentrate is diluted with emulsifier-containing water to the desired concentration.
Vessels are filled with sand, a solution of the active ingredient, a suspension containing eggs and larvae of Meloidogyne incognita and salad seeds. The salade seeds germinate and the seedlings grow. Galls develop in the roots.
After 14 days the nematicidal activity is determined on the basis of the percentage of gall formation. 100% means that no galls were found; 0% means that the number of galls found on the roots of the treated plants was equal to that in untreated control plants.

Experiment [1] has as its system green peach aphid (Myzus persicae). The experiment can be described thus: Myzus persicae test (MYZUPE spray application). To be noted: foliar, 144 h, spray on Chinese cabbage leaf disks, after 6 days, read-out: Efficacy % (mortality). How it is done: Test; (MYZUPE Spray Application)
(§1) • Solvent: 78.0 parts by weight acetone • 1.5 parts by weight dimethylformamide • Emulsifier: 0.5 parts by weight alkylarylpolyglycolether
To produce a suitable preparation of active compound, 1 part by weight of active compound is mixed with the stated amount of solvent and emulsifier, and the concentrate is diluted with emulsifier-containing water to the desired concentration. Chinese cabbage (Brassica pekinesis) leaf-disks infected with all instars of the green peach aphid (Myzus persicae), are sprayed with a preparation of the active ingredient at the desired concentration.
After 6 days mortality in % is determined. 100% means that all aphids have been killed; 0% means that none of the aphids have been killed.

The test system of experiment [2] is mustard beetle larvae (Phaedon cochleariae). Description: Phaedon cochleariae test (PHAECO spray application). The note with it: foliar, 168 h, spray on Chinese cabbage leaf disks, after 7 days, read-out: Efficacy % (mortality). Here is the method: Test; (PHAECO Spray Application)
• Solvent: 78.0 parts by weight of acetone • 1.5 parts by weight of dimethylformamide • Emulsifier: 0.5 parts by weight of alkylaryl polyglycolether
To produce a suitable preparation of active compound, 1 part by weight of active compound is mixed with the stated amount of solvent and emulsifier, and the concentrate is diluted with emulsifier-containing water to the desired concentration. Chinese cabbage (Brassica pekinesis) leaf-disks are sprayed with a preparation of the active ingredient of the desired concentration. Once dry, the leaf disks are infested with mustard beetle larvae (Phaedon cochleariae).
After 7 days mortality in % is determined. 100% means that all beetle larvae have been killed and 0% means that none of the beetle larvae have been killed.

In experiment [3] the test system is fall armyworm larvae (Spodoptera frugiperda). The experiment can be described thus: Spodoptera frugiperda test (SPODFR spray application). The note with it: 168 h, spray on maize leaf sections, after 7 days, read-out: Efficacy % (mortality).
From the text: Test (SPODFR Spray Application)
as §1
To produce a suitable preparation of the active compound, 1 part by weight of active compound is mixed with the stated amount of solvent and emulsifier, and the concentrate is dilutes with emulsifier-containing water to the desired concentration. Maize (Zea mais) leaf sections are sprayed with a preparation of the active ingredient of the desired concentration. Once dry, the leaf sections are infested with fall armyworm larvae (Spodoptera frugiperda).
After 7 days mortality in % is determined. 100% means that all caterpillars have been killed and 0% means that none of the caterpillars have been killed.

The test system of experiment [4] is two spotted spidermite (Tetranychus urticae). Description: Tetranychus urticae test; OP-resistant (TETRUR spray application). To be noted: 144 h, read-out: Efficacy % (mortality). How it is done: Test; OP-Resistant (TETRUR Spray Application)
as §1
To produce a suitable preparation of active compound, 1 part by weight of active compound is mixed with the stated amount of solvent and emulsifier, and the concentrate is diluted with emulsifier-containing water to the desired concentration. French beans (Phaseolus vulgaris) which are heavily infested with all stages of the two spotted spidermite (Tetranychus urticae), are sprayed with a preparation of the active ingredient at the desired concentration.
After 6 days mortality in % is determined. 100% means that all spider mites have been killed and 0% means that none of the spider mites have been killed.

In the case of `Cc1ccc(-c2ccc(Cl)cc2)cc1C1=C(O)[C@H]2[C@@H](C1=O)[C@@H]1CC[C@H]2O1` [Ex No. T 1], in the experiment on Meloidogyne incognita, the “Efficacy % (nematicidal activity, gall formation)” value stood at 100%. Besides, the mortality at 500 g/ha worked out at 90% in experiment [1]; 100% in experiment [3]; 100% in experiment [4] (TETRUR, OP-resistant, 500 g/ha, spray on French beans, after 6 days). Besides, the mortality at 100 g/ha in experiment [2] (100 g/ha) is 83%.

As to `CCOC(=O)OC1=C(c2cc(-c3ccc(Cl)cc3)ccc2C)C(=O)C2C3CCC(O3)C12` (stereo not drawn) [Ex No. P 12], the mortality at 500 g/ha was 90% in experiment [1], 83% in experiment [2] (500 g/ha), 100% in experiment [3] and 100% in experiment [4].
